Assay results published in patent publication US20230364074A1, “Compounds and Compositions for Disrupting Programmed Ribosomal Frameshifting” (YALE UNIVERSITY, priority 2020, published 2023).
Counter-ions that a name gives are not always drawn. Like-named read-outs stand apart in the source and are kept apart here.

How the values were obtained:
SARS-CoV-2 FSE (−1 PRF) = assay: cells; type: cell-based
HEK293T cells = assay: Cell viability in the high-throughput screen (cell nuclei numbers)
Description: HEK293T cells were plated in 384 well plates at the density of 5,000 cells/well. Cells were treated by 10 μM candidate compounds 30 min before transfection of 15 ng mCherry-FSE-GFP(−1) plasmid DNA in each well. 24 hours after transfection, cell nuclei were stained with Hoechst dye. Cell nuclei, mCherry, and GFP signals were imaged using an automated fluorescent microscope with a 10x objective, and the acquired images were quantified using the CellProfiler image analysis package. Cell nuclei numbers were quantified as the metric for cell viability. Mean GFP and RFP intensity values were measured in all transfected cells, and GFP/mCherry mean intensity ratios were quantified as the metric for PRF efficiency. The mCherry-GFP fusion plasmid and the mCherry-FSE-GFP(0) plasmid were used as positive and negative controls for elevated and reduced GFP/mCherry ratios, respectively.

[1] = Severe acute respiratory syndrome coronavirus 2, HEK-293T, 24 h; read-out: PERCENT EFFECT 2 (Decreased GFP/Red ratio)
[2] = Severe acute respiratory syndrome coronavirus 2, HEK-293T, 24 h; read-out: PERCENT EFFECT (Increased GFP/Red Ratio)
[3] = 10 μM compound, cell nuclei numbers
[4] = Severe acute respiratory syndrome coronavirus 2, HEK-293T, 24 h, read-out: PERCENT EFFECT 2 (Decreased GFP/Red ratio)
[5] = Severe acute respiratory syndrome coronavirus 2, HEK-293T, 24 h, read-out: PERCENT EFFECT (Increased GFP/Red Ratio)

| Structure (SMILES) | inhibition at 10 µM (SARS-CoV-2 FSE (−1 PRF); [1]) | activation at 10 µM (SARS-CoV-2 FSE (−1 PRF); [2]) | PERCENT VIABILITY (HEK293T cells; [3]) | also measured |
| --- | --- | --- | --- | --- |
| COc1cccc2c1C(=O)c1c(O)c3c(c(O)c1C2=O)C[C@@](O)(C(=O)CO)C[C@@H]3O[C@H]1C[C@H](N)[C@@H](O)[C@H](C)O1 [EPIRUBICIN HYDROCHLORIDE] | 105% | -56.4% | 46.3% | – |
| CCCC1(CCC)CCC2(CCN(CCCN(CC)CC)C2)CC1 [atiprimod, 3-(8,8-dipropyl-3-azaspiro[4.5]decan-3-yl)-N,N-diethylpropan-1-amine] | -40.9% | 21.2% | 7.2% | – |
| Nc1c2ccccc2nc2ccccc12 [AMINACRINE] | – | – | 24.0% | inhibition at 10 µM (SARS-CoV-2 FSE (−1 PRF); [4]): -39.3%; activation at 10 µM (SARS-CoV-2 FSE (−1 PRF); [5]): 20.3% |
| C[C@@H]1O[C@@H](O[C@H]2C[C@@H](O)[C@]3(CO)[C@H]4[C@H](O)C[C@]5(C)[C@@H](C6=CC(=O)OC6)CC[C@]5(O)[C@@H]4CC[C@]3(O)C2)[C@H](O)[C@H](O)[C@H]1O [Ouabain] | -29.7% | 15.7% | 16.4% | – |
| CC(=O)[C@]1(N)Cc2c(O)c3c(c(O)c2[C@@H](O[C@H]2C[C@H](O)[C@H](O)CO2)C1)C(=O)c1ccccc1C3=O.Cl [amrubicin, (7S,9S)-9-acetyl-9-amino-7-[(2S,4S,5R)-4,5-dihydroxyoxan-2-yl]oxy-6,11-dihydroxy-8,10-dihydro-7H-tetracene-5,12-dione hydrochloride] | – | – | – | inhibition at 10 µM (SARS-CoV-2 FSE (−1 PRF); [4]): 50.5%; activation at 10 µM (SARS-CoV-2 FSE (−1 PRF); [5]): -23.7%; PERCENT VIABILITY (HEK293T cells; human): 111.0% |
| CCOC(=O)OC(C)OC1=C(C(=O)Nc2ccccn2)N(C)S(=O)(=O)c2ccccc21 (stereo not drawn) [AMPIROXICAM] | -57.1% | 30.8% | 284.3% | – |
| O=C1OC2(c3ccccc31)c1cc(I)c(O)c(I)c1Oc1c2cc(I)c(O)c1I [ERYTHROSINE SODIUM] | 105% | -56.3% | 100.7% | – |
| CN(C)c1ccc(C(=C2C=CC(=[N+](C)C)C=C2)c2ccc(N(C)C)cc2)cc1 [GENTIAN VIOLET] | 66.6% | -34.5% | 12.5% | – |
| COc1cccc2c1C(=O)c1c(O)c3c(c(O)c1C2=O)C[C@@](O)(C(C)=O)C[C@@H]3O[C@H]1C[C@H](N)[C@H](O)[C@H](C)O1 [DAUNORUBICIN] | 108% | – | 15.3% | PERCENT VIABILITY (HEK293T cells; 10 μM compound, cell nuclei numbers, listed as daunorubicin): 16.18% |
| Cc1cc(-c2ccc(/N=N/c3ccc4c(S(=O)(=O)O)cc(S(=O)(=O)O)c(N)c4c3O)c(C)c2)ccc1/N=N/c1ccc2c(S(=O)(=O)O)cc(S(=O)(=O)O)c(N)c2c1O [EVANS BLUE] | 31.2% | -13.6% | 159.7% | – |
| COc1cccc2c1C(=O)c1c(O)c3c(c(O)c1C2=O)C[C@@](O)(C(=O)CO)C[C@@H]3O[C@H]1C[C@H](N)[C@H](O)[C@H](C)O1 [DOXORUBICIN] | 101% | -54.1% | 13.3% | – |
| Nc1c2c(nc3ccccc13)CCCC2 [TACRINE HYDROCHLORIDE] | – | – | – | inhibition at 10 µM (SARS-CoV-2 FSE (−1 PRF); [4]): 97.1%; activation at 10 µM (SARS-CoV-2 FSE (−1 PRF); [5]): -50.2%; PERCENT VIABILITY (HEK293T cells; human): 148.9% |
| O=C(Nc1ccc(Cl)cc1)Nc1ccc(Cl)c(C(F)(F)F)c1 [halocarban, 3-(4-chlorophenyl)-1-[4-chloro-3-(trifluoromethyl)phenyl]urea] | -48.8% | 23.9% | 54.7% | – |
| O=C(CCCCCCC(=O)Nc1ccccc1)NO [vorinostat] | -28.8% | 15.2% | 20.6% | – |
| C[C@@H]1O[C@@H](O[C@@H]2C=C3CC[C@@H]4[C@H](CC[C@]5(C)[C@@H](c6ccc(=O)oc6)CC[C@]45O)[C@@]3(C)CC2)[C@H](O)[C@H](O)[C@H]1O [PROSCILLARIDIN] | -37.8% | 16.5% | 3.4% | – |
| CC[C@]1(O)C[C@@H]2CN(CCc3c([nH]c4ccccc34)[C@@](C(=O)OC)(c3cc4c(cc3OC)N(C)[C@H]3[C@@](O)(C(N)=O)[C@H](O)[C@]5(CC)C=CCN6CC[C@]43[C@@H]65)C2)C1 [Vindesine Sulfate] | – | 16.8% | 26.1% | PERCENT VIABILITY (HEK293T cells; 10 μM compound, cell nuclei numbers, listed as Vindesine sulfate): 21.3% |
| CC[C@@]1(O)C[C@H](OC2CC(N(C)C)C(OC3CC(O)C(OC4CCC(=O)C(C)O4)C(C)O3)C(C)O2)c2c(cc3c(c2O)C(=O)c2c(O)cccc2C3=O)[C@H]1C(=O)OC (stereo partly drawn) [aclarubicin, methyl (1R,2R,4S)-4-[4-dimethylamino-5-[4-hydroxy-6-methyl-5-(6-methyl-5-oxooxan-2-yl)oxyoxan-2-yl]oxy-6-methyloxan-2-yl]oxy-2-ethyl-2,5,7-trihydroxy-6,11-dioxo-3,4-dihydro-1H-tetracene-1-carboxylate] | 33.3% | – | 52.5% | PERCENT VIABILITY (HEK293T cells; 10 μM compound, cell nuclei numbers, listed as Aclarubicin): 54.77% |
| O=C([O-])c1ccccc1-c1c2cc(Br)c(=O)cc-2oc2[c]([Hg+])c([O-])c(Br)cc12.[Na+].[Na+].[OH-] [MERBROMIN] | – | – | 167.4% | PERCENT EFFECT 2 (Decreased GFP/Red ratio) (SARS-CoV-2 FSE (−1 PRF)): 53.1%; PERCENT EFFECT (Increased GFP/Red Ratio) (SARS-CoV-2 FSE (−1 PRF)): −23.1% |
| COc1ccc(C[C@H](N)C(=O)NC2[C@@H](O)[C@H](n3cnc4c(N(C)C)ncnc43)O[C@@H]2CO)cc1 (stereo partly drawn) [puromycin, (2S)-2-amino-N-[(2S,4R,5R)-5-(6-dimethylaminopurin-9-yl)-4-hydroxy-2-(hydroxymethyl)oxolan-3-yl]-3-(4-methoxyphenyl)propanamide] | – | 18.9% | 26.1% | PERCENT VIABILITY (HEK293T cells; 10 μM compound, cell nuclei numbers, listed as Puromycin): 49.7% |
| CCN(CC)CCCC(C)Nc1c2ccc(Cl)cc2nc2ccc(OC)cc12 (stereo not drawn) [QUINACRINE HYDROCHLORIDE] | -40.8% | 21.1% | 147.8% | – |
| Cc1cccc(C)c1N=C1NCCCS1 [XYLAZINE] | -52.5% | 28.9% | 196.8% | – |
| CCN(CCO)CCCC(C)Nc1ccnc2cc(Cl)ccc12 (stereo not drawn) [HYDROXYCHLOROQUINE SULFATE] | -34.5% | 18.9% | 346.2% | – |
| CCN1/C(=C/C=C/C=C/c2sc3ccccc3[n+]2CC)Sc2ccccc21.[I-] [dithiazanine, 3-ethyl-2-[(1Z,3E,5E)-5-(3-ethyl-1,3-benzothiazol-2-ylidene)penta-1,3-dienyl]-1,3-benzothiazol-3-ium iodide] | 79.7% | -39% | 48.28% | – |
| Cc1cc2nc3c(=O)[nH]c(=O)nc-3n(CC(O)C(O)C(O)CO)c2cc1C (stereo not drawn) [riboflavin, 7,8-dimethyl-10-(2,3,4,5-tetrahydroxypentyl)benzo[g]pteridine-2,4-dione] | -40% | 19.6% | 187.1% | – |
| O=P(O)(O)OC1[C@H](OP(=O)(O)O)[C@H](O)C(O)[C@H](O)[C@H]1OP(=O)(O)O (stereo partly drawn) [atrinositol, [(2R,3S,5R,6R)-3,4,5-trihydroxy-2,6-diphosphonooxycyclohexyl] dihydrogen phosphate] | -61.7% | 30.2% | – | PERCENT VIABILITY (HEK293T cells; human): 199.8% |
| CCCCC(=O)O[C@H]1CC[C@H]2[C@@H]3CCc4cc(O)ccc4[C@H]3CC[C@]12C [ESTRADIOL VALERATE] | 20.9% | -10.8% | 204.4% | – |
